Test results as given in PMC7954794, “Protein context shapes the specificity of SH3 domain-mediated interactions in vivo” (Nature Communications, 2021).

Legend:
Abp1 (1xFLAG) = assay: Western blot expression level of Abp1 SH3-swapped baits (Fig. S2A-B); assay type: cell-based, Saccharomyces cerevisiae; design: Flag (2 bands): unit not given here; details: sheet FigS2A-B; for Ratio Swap/WT Flag: Flag signal relative to Abp1 WT (Abp1-1 to Abp1-4 = 1); for Flag (2 bands): Western blot Flag signal (2 bands), Abp1 WT, SH3-deleted or SH3-swapped
Procedure: Precultures of yeast cells expressing baits fused with the DHFR F[1,2]-FLAG were grown overnight at 30 °C with agitation in synthetic complete medium. The next day, cells were expanded in synthetic complete medium to reach their exponential phase (OD600 of around 1.0), pelleted, and frozen at −80 °C. The equivalent of fifty OD600 of cells was resuspended in ice-cold yeast lysis buffer (10 mM Tris-HCl pH 7.4, 150 mM NaCl, 0.5 mM EDTA (Millipore Sigma), 1% Triton X-100 (Millipore Sigma), and one cOmplete Mini Protease Inhibitor Cocktail (Millipore Sigma) per 10 mL) with […] glass beads (Millipore Sigma) and disrupted at 4 °C by 10 cycles of 2 min vortexing and 2 min cooldown. The equivalent of […] of lysed cells was used for the immunoprecipitation of the bait proteins using FLAG-M2 agarose beads (Millipore Sigma). The beads were incubated with the cell lysates for 120 min at 4 °C with a slow rotation, followed by three washes with the yeast lysis buffer.
Protein extracts and affinity-purified baits from yeast and human lysed cells were migrated on 10% polyacrylamide gels. The separated proteins were then transferred to nitrocellulose membranes. Validation of correct protein loading was done with ponceau staining of the membranes. Before the primary antibody incubations, membranes were blocked in 5% milk. Protein signals were detected on an Amersham Imager 600RGB (GE Healthcare) following the incubation of the membranes with the appropriate HRP-conjugated secondary antibodies and the Clarity Western ECL Substrate (Bio-Rad). The antibodies used in this study are M2-HRP (A8592, Sigma, 1/50,000), rabbit anti-FLAG (F7425, Sigma, 1/1000), PAK (SC-881, Santa Cruz, 1/200), p130cas/BCAR1 (SC-860, Santa Cruz, 1/200), actin (Cell Signaling Technology, 1/2000), anti-mouse HRP (Cell Signaling Technology, 1/10,000) and anti-rabbit HRP (Cell Signaling Technology, 1/10,000). The quantification of the WB signals was performed with the Amersham Imager 600 analysis software (GE Healthcare).

Abp1 PPIs = assay: DHFR-PCA of Abp1 SH3-swapped baits (Fig. 2B-D, S2C, S2F); assay type: cell-based, Saccharomyces cerevisiae; details: number of interactions of Abp1 carrying the named SH3; sheet FigS2A-B
From the text: Having determined that multiple PPIs require SH3s, we asked whether the latter establish PPI specificity independently from their host proteins by swapping domains (Fig. 2A). Using the second round of genome editing, we individually replaced Abp1 SH3 with the 27 yeast SH3s and 3 human Abp1 orthologs’ SH3s (CTTN, HCLS1, and DBNL, Fig. 2B). The reintroduction of its own SH3 (Abp1SH3 in Abp1) reconstitutes almost perfectly Abp1’s interaction profile (Kendall’s τ = 0.93, Fig. 2B). […] No homologous SH3 domain fully re-establishes the normal Abp1 PPI profile (Fig. 2B and Supplementary Fig. 2C). However, we observe a significant correlation (cophenetic correlation = 0.20, p value = 0.005, Fig. 2C) between the similarity of PPI profiles (Fig. 2B) and the sequence similarity of the SH3s. […] Nonetheless, a subset of SH3-dependent PPIs is only observed with the endogenous domain. For instance, Hua2 and App1, both well-characterized partners of Abp1[14],[18],[19], are only detected when Abp1 contains its own SH3 (WT or swapped via editing). A given SH3 may therefore not be fully replaceable with other paralogous or orthologous domains. This pattern is confirmed by cellular growth phenotypic analyses (Supplementary Fig. 2D, E). PPIs, SH3 sequence similarity, and growth profiles under stress conditions are correlated (Supplementary Fig. 2D, E). This relationship is particularly clear when analyzing growth on media supplemented with hygromycin.
The stuffing of YSC84 SH3 rendered the strain sterile and was therefore not used for this study as the assays require crosses. For genes containing two SH3s (BZZ1 and BEM1), a combination of this first stuffer with a second one ([…]) coding for a highly similar linker ([…]) was used, which allowed targeting each SH3 position independently. The two N-terminal domains of SLA1, which are separated by six nucleotides, were stuffed by a single stuffer. Cells containing pCAS were selected via the G418 resistance cassette from the plasmid on YPD plates (YPD + NAT 100 μg/ml (DHFR F[1,2] selection) + G418 200 µg/mL (Bioshop Canada)). Colonies were randomly selected and grown in YPD media without G418 to allow plasmid loss. The correct insertion of the stuffer was validated by PCR and Sanger sequencing. The SH3-swapped, -shuffled, and -mutated strains were constructed following a second CRISPR–Cas9 editing step with the same procedures. The stuffer sequences were targeted by specific gRNAs (one gRNA per stuffer) and replaced by PCR amplified specific SH3 (with 40 bp homology arms) or libraries of mutated SH3 domains for Deep Mutational Scanning (DMS) with 78 bp flanking homology regions. Validation of the SH3 domain insertions was done as we previously described except for DMS libraries (see below).
The overall DHFR-PCA pipeline is based on Tarassov et al.[43] and the procedures have also been published as a visualized protocol. The screens were performed with robotically manipulated pin tools (BM5-SC1, S&P Robotics Inc.). First, the preys were cherry-picked from 96-well plates to omnitrays in a 384 format on YPD + HPH solid media. Plates were then combined into the 1536 format on YPD + HPH. The array was constituted of 575 preys previously shown to interact physically with at least one SH3-containing protein as reported in BioGRID V3.4.16 along with 40 negative controls. The prey array comprised a border of control strains of two rows and two columns corresponding to the PPI between LSM8-DHFR F[1,2] and CDC39-DHFR F[3]. This double border was used to remove border effects. Preys are present in duplicate at a randomized position in the 1536 array (except for YAL041W which is present four times per array). Baits were crossed with two prey plates, resulting in four independent bait–prey tests for each PPI. Baits were grown in liquid YPD + NAT and then transferred on solid YPD + NAT omnitrays. They were then replicated on YPD + NAT omnitrays in 1536 array format. […]

[1] = tested on: NCK2 interactome in HEK293T cells; assay: AP-SWATH (DIA) quantitative MS of NCK2 PPIs (Fig. 5A-C); assay type: cell-based, human; details: SAINT FDR < 1%; duplicates
Procedure: Human embryonic kidney 293T cells (HEK293T, ATCC:CRL-3216) were grown in Dulbecco’s Modified Eagle’s medium (DMEM) high glucose complemented with 10% fetal calf serum under 5% CO2 at 37 °C. Transient expression of cDNA in cells was performed by polyethylenimine (PEI, Millipore Sigma) transfections. Enrichment of phospho-dependent PPIs was done by treating HEK293T cells with the tyrosine phosphatase inhibitor pervanadate, freshly made by mixing 4 mM orthovanadate (Millipore Sigma) with 30% H2O2 (Millipore Sigma) in water in a 200:1 volume ratio. […]
NCK2 baits purified on beads from HEK293T cells (as previously described in the methods) were washed two additional times in 20 mM Tris-HCl pH 7.4 and eluted in 50 mM phosphoric acid. […] These were analyzed alongside four negative controls corresponding to transiently expressed 3×FLAG-GFP purified from HEK293T cells (as described for NCK2 constructs). […] The equivalent of one-third of each sample was used for the SWATH-libraries generation and another third for SWATH quantification. […] We validated that the same quantity of baits was used for each NCK2 chimeras by quantifying NCK2 peptides in each sample (see Supplementary Data 3). […]

BZZ1-1 = assay: DHFR-PCA on solid medium, bait BZZ1-1 (Fig. 1B); assay type: cell-based, Saccharomyces cerevisiae; details: bait BZZ1-1, label = prey; 4 replicates
From the text: Supplement 41467_2021_21873_MOESM8_ESM.xlsx, sheet "Fig1B" | column: medsize; medrep; Score

BOI1 = assay: DHFR-PCA on solid medium, bait BOI1 (Fig. 1B); assay type: cell-based, Saccharomyces cerevisiae; details: bait BOI1, label = prey
From the text: (§1) Supplement 41467_2021_21873_MOESM8_ESM.xlsx, sheet "Fig1B" | column: medsize; medrep; Ratio; Score

BEM1-1 = assay: DHFR-PCA on solid medium, bait BEM1-1 (Fig. 1B); assay type: cell-based, Saccharomyces cerevisiae; details: bait BEM1-1, label = prey; 2-8 replicates
From the text: as §1

[2] = tested on: 575 putative partners (preys) of 22 WT SH3-containing proteins; assay: DHFR-PCA on solid medium, WT and SH3-deleted baits (Fig. 1B); assay type: cell-based, Saccharomyces cerevisiae; design: key to Score: 0: SH3-independent; 1: SH3-dependent PPIs; 2: SH3-inhibited PPIs
Method in brief: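 In S. cerevisiae, 22 SH3-containing baits fused genomically to DHFR F[1,2], either WT or with each SH3 replaced via CRISPR by a poly-Gly/Ser linker, screened against 575 DHFR F[3] preys plus 40 negative controls in 1536 arrays, preys duplicated at randomized positions.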

BUD14 = assay: DHFR-PCA on solid medium, bait BUD14 (Fig. 1B); assay type: cell-based, Saccharomyces cerevisiae; details: bait BUD14, label = prey; 4 replicates
From the text: as §1

BBC1 = assay: DHFR-PCA on solid medium, bait BBC1 (Fig. 1B); assay type: cell-based, Saccharomyces cerevisiae; details: bait BBC1, label = prey; 2-4 replicates
From the text: as §1

ABP1 = assay: DHFR-PCA on solid medium, bait ABP1 (Fig. 1B); assay type: cell-based, Saccharomyces cerevisiae; details: bait ABP1, label = prey; 2-4 replicates
From the text: as §1

BEM1-2 = assay: DHFR-PCA on solid medium, bait BEM1-2 (Fig. 1B); assay type: cell-based, Saccharomyces cerevisiae; details: bait BEM1-2, label = prey; 2-8 replicates
From the text: as §1

BOI2 = assay: DHFR-PCA on solid medium, bait BOI2 (Fig. 1B); assay type: cell-based, Saccharomyces cerevisiae; details: bait BOI2, label = prey; 3-8 replicates
From the text: as §1

## Cdc25
Abp1 (1xFLAG)
  Ratio Swap/WT Flag: 0.6887
  Flag (2 bands): 152280
Abp1 PPIs
  Interactions in Abp1: 27

## Rvs167
Abp1 (1xFLAG)
  Ratio Swap/WT Flag: 0.1645
  Flag (2 bands): 38158
Abp1 PPIs
  Interactions in Abp1: 91

## WT NCK2: wild-type NCK2 adaptor (mouse cDNA) with three SH3s and one SH2
[1]
  High confidence NCK2 PPIs: 56 PPIs

## YDL229W
BZZ1-1
  medrep (log2 median colony size normalized to plate background, PCA score): 4.468
BOI1; 3-8 replicates
  medrep (log2 median colony size normalized to plate background, PCA score): 2.407
BOI1; only significant differences showed, PPIs completely lost have a ratio of 0.1 and the gained PPIs 2.5
  Ratio (SH3-deleted/WT medrep): 2.5
BEM1-1
  medrep (log2 median colony size normalized to plate background, PCA score): 3.594
[2]; bait SLA1-3, DHFR-PCA, label = prey, Replicates 4 (2 for YCR009C, YDR388W, YIL033C)
  medrep (log2 median colony size normalized to plate background, PCA score): 5.405
[2]; bait SLA1-3, label = prey
  Score: 0
BUD14
  medrep (log2 median colony size normalized to plate background, PCA score): 3.548
BBC1
  medrep (log2 median colony size normalized to plate background, PCA score): 5.103
ABP1
  medrep (log2 median colony size normalized to plate background, PCA score): 5.461
BEM1-2
  medrep (log2 median colony size normalized to plate background, PCA score): 3.594
BOI2
  medrep (log2 median colony size normalized to plate background, PCA score): 3.977
